# Reference: the supplement of paper PMC4862054
# Assays:
# Details in all cases: 72 h
# CAL-85-1 = tested on: CAL-85-1
# Outline: (§1)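 In this assay, breast cancer cell lines spent 72 h with compound at 5 concentrations in 10-fold steps over a compound-specific 10,000-fold range. The first readout was cell death by CellTox Green fluorescence, and the second was viability by CellTiter-Glo luminescence, each normalised per plate to 0.1 % DMSO and a positive kill control. EC50 came from the dose-response curves, censored at the top concentration.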
# HCC1599 = tested on: HCC1599
# Outline: as §1
# MDA-MB-468 = tested on: MDA-MB-468
# Outline: as §1
# HDQ-P1 [1] = tested on: HDQ-P1
# Outline: as §1
# CAL-148 [2] = tested on: CAL-148
# Outline: as §1
# MDA-MB-453 [3] = tested on: MDA-MB-453
# Outline: as §1
# MFM-223 [4] = tested on: MFM-223
# Outline: as §1
# BT-549 = tested on: BT-549
# Outline: as §1
# DU-4475 = tested on: DU-4475
# Outline: as §1
# HCC1937 = tested on: HCC1937
# Outline: as §1
# BT-474 [5] = tested on: BT-474
# Outline: as §1
# MDA-MB-231 [6] = tested on: MDA-MB-231
# Outline: as §1
# Hs578T = tested on: Hs578T
# Outline: as §1
# MCF-10A [7] = tested on: MCF-10A
# Outline: as §1
# CAL-51 = tested on: CAL-51
# Outline: as §1
# SK-BR-3 = tested on: SK-BR-3
# Outline: as §1
# CAL-120 [8] = tested on: CAL-120
# Outline: as §1
# HCC1143 [9] = tested on: HCC1143
# Outline: as §1
# MDA-MB-436 [10] = tested on: MDA-MB-436
# Outline: as §1
# HDQ-P1 [11] = tested on: HDQ-P1; remark: listed apart in the source
# Procedure: (§2)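 Drug sensitivity and resistance testing (DSRT) of breast cancer cell lines in 384-well plates, 5 concentrations in 10-fold dilutions over a compound-specific 10,000-fold range. After 72 h, cytotoxicity was read by CellTox Green fluorescence and viability by CellTiter-Glo luminescence (multiplexed), normalised to DMSO and benzethonium chloride controls. EC50 is the inflection point of the fitted dose-response curve (bottom asymptote free, so it can be relative for partial curves) and is censored at the highest tested concentration. Rows with DSS 0 (no meaningful response) were excluded.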
# CAL-148 [12] = tested on: CAL-148; remark: listed apart in the source
# Procedure: as §2
# MDA-MB-453 [13] = tested on: MDA-MB-453; remark: listed apart in the source
# Procedure: as §2
# MFM-223 [14] = tested on: MFM-223; remark: listed apart in the source
# Procedure: as §2
# MDA-MB-231 [15] = tested on: MDA-MB-231; remark: listed apart in the source
# Procedure: as §2
# MCF-10A [16] = tested on: MCF-10A; remark: listed apart in the source
# Procedure: as §2
# CAL-120 [17] = tested on: CAL-120; remark: listed apart in the source
# Procedure: as §2
# HCC1143 [18] = tested on: HCC1143; remark: listed apart in the source
# Procedure: as §2
# MDA-MB-436 [19] = tested on: MDA-MB-436; remark: listed apart in the source
# Procedure: as §2
# BT-474 [20] = tested on: BT-474; remark: listed apart in the source
# Outline: (§3)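 The reported EC50 was fitted from percent-inhibition dose-response curves and censored at the highest concentration. Breast cancer cell lines (20 µl suspension) were added to 384-well plates containing compound in 5 µl medium and incubated 72 h, and viability was read with 2.5 µl CellTiter-Blue over 2 h at 37 °C at 560/590 nm. Each plate was normalised to vehicle and a positive kill control and checked by Z'-factor, and rows with zero drug sensitivity score were dropped.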
# HDQ-P1 [21] = tested on: HDQ-P1; remark: listed apart in the source
# Outline: as §3
SMILES,"EC50, CellTiter-Glo (CAL-85-1) [nM]","EC50, CellTiter-Glo (HCC1599) [nM]","EC50, CellTiter-Glo (MDA-MB-468) [nM]","EC50, CellTiter-Glo (HDQ-P1 [1]) [nM]","EC50, CellTiter-Glo (CAL-148 [2]) [nM]","EC50, CellTiter-Glo (MDA-MB-453 [3]) [nM]","EC50, CellTiter-Glo (MFM-223 [4]) [nM]","EC50, CellTiter-Glo (BT-549) [nM]","EC50, CellTiter-Glo (DU-4475) [nM]","EC50, CellTiter-Glo (HCC1937) [nM]","EC50, CellTiter-Glo (BT-474 [5]) [nM]","EC50, CellTiter-Glo (MDA-MB-231 [6]) [nM]","EC50, CellTiter-Glo (Hs578T) [nM]","EC50, CellTiter-Glo (MCF-10A [7]) [nM]","EC50, CellTiter-Glo (CAL-51) [nM]","EC50, CellTiter-Glo (SK-BR-3) [nM]","EC50, CellTiter-Glo (CAL-120 [8]) [nM]","EC50, CellTiter-Glo (HCC1143 [9]) [nM]","EC50, CellTiter-Glo (MDA-MB-436 [10]) [nM]","EC50, CellTox Green (HDQ-P1 [11]) [nM]","EC50, CellTox Green (CAL-148 [12]) [nM]","EC50, CellTox Green (MDA-MB-453 [13]) [nM]","EC50, CellTox Green (MFM-223 [14]) [nM]","EC50, CellTox Green (MDA-MB-231 [15]) [nM]","EC50, CellTox Green (MCF-10A [16]) [nM]","EC50, CellTox Green (CAL-120 [17]) [nM]","EC50, CellTox Green (HCC1143 [18]) [nM]","EC50, CellTox Green (MDA-MB-436 [19]) [nM]","EC50, CellTiter-Blue viability (BT-474 [20]) [nM]","EC50, CellTiter-Blue viability (HDQ-P1 [21]) [nM]"
O=[N+]([O-])c1ccc2c(c1)S(=O)(=O)C=C2 [Stattic],1630,10600,446,12700,4640,3720,2730,1010,16300,2460,7660,2760,3130,17400,1540,8890,11000,13200,7930,34000,3870,27400,1230,5150,1190,34300,13800,14400,–,–
O=C(CCCCCCC(=O)Nc1ccccc1)NO [Vorinostat],2320,3990,1200,8320,2140,1180,5670,7340,2300,6280,3760,3170,6670,8980,2180,3470,8470,4590,–,–,8260,–,–,1720,–,6840,6130,–,2290,–
C=CCn1c(=O)c2cnc(Nc3ccc(N4CCN(C)CC4)cc3)nc2n1-c1cccc(C(C)(C)O)n1 [MK1775],294,183,759,326,190,66.3,250,373,1740,344,233,172,275,621,380,203,740,558,308,467,143,–,267,203,1270,1380,5090,69.7,249,318
